Columns and labels:
[1] = Cytotoxicity against mouse macrophages assessed as cell viability at 100 uM after 18 hrs by MTT assay; assay type: cell-based, Macrophage; settings: read-out: Activity
[2] = test system: Mycobacterium tuberculosis; assay: Antimycobacterial activity against Mycobacterium tuberculosis H37Rv ATCC 27294 by alamar blue assay; assay type: functional
[3] = Cytotoxicity against mouse macrophages assessed as cell viability at 10 uM after 18 hrs by MTT assay; assay type: cell-based, Macrophage; settings: read-out: Activity
[4] = Cytotoxicity against mouse macrophages assessed as cell viability at 1 uM after 18 hrs by MTT assay; assay type: cell-based, Macrophage; settings: read-out: Activity
[5] = test system: Mycobacterium tuberculosis; assay: Ratio of mefloquine MIC to compound MIC for Mycobacterium tuberculosis H37Rv ATCC 27294 by alamar blue assay; assay type: functional

Row | Structure (SMILES) | viability at 18 h, 100 µM [1] [%] | MIC [2] [µM] | viability at 18 h, 10 µM [3] [%] | viability at 18 h, 1 µM [4] [%] | Ratio [5]
1 | FC(F)(F)c1cc([C@@H]2OC(c3c(Cl)cccc3Cl)N3CCCC[C@H]23)c2cccc(C(F)(F)F)c2n1 (mixture of isomers) | 59 | > 250 | 92 | 93 | –
2 | O=[N+]([O-])c1ccc(C2O[C@@H](c3cc(C(F)(F)F)nc4c(C(F)(F)F)cccc34)[C@H]3CCCCN23)s1 (mixture of isomers) | 100 | 12.1 | 100 | 100 | 2.7
3 | FC(F)(F)c1cc([C@@H]2OC(c3ccc(Cl)cc3Cl)N3CCCC[C@H]23)c2cccc(C(F)(F)F)c2n1 (mixture of isomers) | 98 | > 250 | 100 | 100 | –
4 | COc1cc(C2O[C@@H](c3cc(C(F)(F)F)nc4c(C(F)(F)F)cccc34)[C@H]3CCCCN23)cc(OC)c1OC (mixture of isomers) | 97 | 22.5 | 100 | 100 | –
5 | O=[N+]([O-])c1ccc(C2O[C@@H](c3cc(C(F)(F)F)nc4c(C(F)(F)F)cccc34)[C@H]3CCCCN23)o1 (mixture of isomers) | 100 | 99.8 | 100 | 100 | –
6 | COc1cccc(C2O[C@@H](c3cc(C(F)(F)F)nc4c(C(F)(F)F)cccc34)[C@H]3CCCCN23)c1OC (mixture of isomers) | 100 | 11.9 | 100 | 100 | 2.8
7 | FC(F)(F)c1cc([C@@H]2OC(c3ccc(Cl)c(Cl)c3)N3CCCC[C@H]23)c2cccc(C(F)(F)F)c2n1 (mixture of isomers) | 100 | > 250 | 100 | 100 | –
8 | OC(c1cc(C(F)(F)F)nc2c(C(F)(F)F)cccc12)C1CCCCN1 (stereo not given) [MEFLOQUINE] | 70 | – | 81 | 95 | –
9 | FC(F)(F)c1cc([C@@H]2OC(c3cccc(Cl)c3Cl)N3CCCC[C@H]23)c2cccc(C(F)(F)F)c2n1 (mixture of isomers) | 100 | > 250 | 100 | 100 | –
10 | FC(F)(F)c1cc([C@@H]2OC(c3ncc[nH]3)N3CCCC[C@H]23)c2cccc(C(F)(F)F)c2n1 (mixture of isomers) | 100 | 27.4 | 100 | 100 | –
11 | CCOc1cccc(C2O[C@@H](c3cc(C(F)(F)F)nc4c(C(F)(F)F)cccc34)[C@H]3CCCCN23)c1 (mixture of isomers) | 95 | 24.5 | 100 | 100 | –

Source: ChEMBL document CHEMBL1926526, “Mefloquine-oxazolidine derivatives, derived from mefloquine and arenecarbaldehydes: In vitro activity including against the multidrug-resistant tuberculosis strain T113” (Bioorg Med Chem, 2012)
